Experiments:
RXR [1] = experiment: RXR transactivation test; format: cell-based; details: for RXR transactivation test (%): tested compound at 10 μM, relative to control 6-[1-(3,5,5,8,8-pentamethyl-5,6,7,8-tetrahydronaphthalen-2-yl)cyclopropyl]nicotinic acid at 10^-8 M; for AC50: read-out: RXR transactivation AC 50
Protocol: We further tested compounds according to the claimed invention to ascertain their activity in assays that identify molecules as RXR-agonists. […] These references are incorporated by reference in their entirety herein.
The percentage values in the Table correspond to the percentage of activities of the tested compound at a concentration of 10 μM. This is relative to a control compound, 6-[1-(3,5,5,8,8-pentamethyl-5,6,7,8-tetrahydronaphthalen-2-yl)cyclopropyl]nicotinic acid, at a concentration of 10^-8 M.

RXR [2] = experiment: RXR binding

Compound | RXR transactivation test (%) (RXR [1]) | AC50 (RXR [1]) | Ki (RXR [2])
CC1(C)CCC(C)(C)c2cc(Oc3ccc(C(=O)O)cc3)ccc21 [Example 1, 4-(5,6,7,8-tetrahydro-5,5,8,8-tetramethyl-2-naphthyloxy)benzoic acid] | 33% | – | –
CC1(C)CCC(C)(C)c2cc([S+]([O-])c3ccc(C(=O)O)cc3)ccc21 (centres unmarked) [Example 3, 4-(5,6,7,8-tetrahydro-5,5,8,8-tetramethyl-2-naphthylsulfinyl)benzoic acid] | 25% | – | –
CC1(C)CCC(C)(C)c2cc(Nc3ccc(C(=O)O)cc3)ccc21 [Example 5, 4-(5,6,7,8-tetrahydro-5,5,8,8-tetramethyl-2-naphthylamino)benzoic acid] | 21% | – | –
CC1(C)CCC(C)(C)c2cc(Sc3ccc(C(=O)O)s3)ccc21 [Example 6, 5-(5,6,7,8-tetrahydro-5,5,8,8-tetramethyl-2-naphthylthio)-2-thiophenecarboxylic acid] | 39% | – | –
Cc1cc2c(cc1Oc1ccc(C(=O)O)cc1)C(C)(C)CCC2(C)C [Example 7, 4-(3,5,5,8,8-pentamethyl-5,6,7,8-tetrahydro-2-naphthyloxy)benzoic acid] | 48% | 355 nM | –
Cc1cc2c(cc1Sc1ccc(C(=O)O)cc1)C(C)(C)CCC2(C)C [Example 8, 4-(3,5,5,8,8-pentamethyl-5,6,7,8-tetrahydro-2-naphthylthio)benzoic acid] | 118% | 300 nM | 3740 nM
CCc1cc2c(cc1Oc1ccc(C(=O)O)cc1)C(C)(C)CCC2(C)C [Example 9, 4-(3-ethyl-5,5,8,8-tetramethyl-5,6,7,8-tetrahydro-2-naphthyloxy)benzoic acid] | 108% | 279 nM | 2820 nM
CC(C)c1cc2c(cc1Oc1ccc(C(=O)O)cc1)C(C)(C)CCC2(C)C [Example 10, 4-(3-isopropyl-5,5,8,8-tetramethyl-5,6,7,8-tetrahydro-2-naphthyloxy)benzoic acid] | 81% | 495 nM | 2480 nM
CC1(C)CCC(C)(C)c2cc(Oc3ccc(C(=O)O)cc3)c(Br)cc21 [Example 13, 4-(3-bromo-5,6,7,8-tetrahydro-5,5,8,8-tetramethyl-2-naphthyloxy)benzoic acid] | 57% | – | 1130 nM
CCc1cc2c(cc1Oc1ccc(C(=O)O)cc1C)C(C)(C)CCC2(C)C [Example 16, 3-methyl-4-(3-ethyl-5,6,7,8-tetrahydro-5,5,8,8-tetramethyl-2-naphthyloxy)benzoic acid] | 38% | – | –
Cc1cc2c(cc1Sc1ccc(C(=O)O)cn1)C(C)(C)CCC2(C)C [Example 17, 6-(3,5,5,8,8-pentamethyl-5,6,7,8-tetrahydro-2-naphthylthio)nicotinic acid] | 102% | 48 nM | 538 nM
Cc1cc2c(cc1Sc1ccc(C(=O)O)c(Cl)c1)C(C)(C)CCC2(C)C [Example 19, 2-chloro-4-(3,5,5,8,8-pentamethyl-5,6,7,8-tetrahydro-2-naphthylthio)benzoic acid] | 58% | 656 nM | –
CCc1cc2c(cc1Sc1ccc(C(=O)O)cc1)C(C)(C)CCC2(C)C [Example 20, 4-(3-ethyl-5,6,7,8-tetrahydro-5,5,8,8-tetramethyl-2-naphthylthio)benzoic acid] | 41% | – | 3950 nM
Cc1cc2c(cc1Sc1ccc(CO)cc1)C(C)(C)CCC2(C)C [Example 23, 4-(3,5,5,8,8-pentamethyl-5,6,7,8-tetrahydro-2-naphthylthio)benzenemethanol] | 3% | – | –
Cc1cc2c(cc1Sc1ccc(C=O)cc1)C(C)(C)CCC2(C)C [Example 24, 4-(3,5,5,8,8-pentamethyl-5,6,7,8-tetrahydro-2-naphthylthio)benzaldehyde] | 17% | – | –
CCNC(=O)c1ccc(Sc2cc3c(cc2C)C(C)(C)CCC3(C)C)cc1 [Example 25, N-ethyl-4-(3,5,5,8,8-pentamethyl-5,6,7,8-tetrahydro-2-naphthylthio)benzamide] | 15% | – | –
Cc1cc2c(cc1Sc1ccc(C(=O)Nc3ccc(O)cc3)cc1)C(C)(C)CCC2(C)C [Example 26, N-4-hydroxyphenyl-4-(3,5,5,8,8-pentamethyl-5,6,7,8-tetrahydro-2-naphthylthio)benzamide] | 14% | – | –

Source: patent US6162815A, “RXR-agonist polycyclic aromatic compounds, pharmaceutical/cosmetic compositions comprising said compound and uses thereof” (Centre International de Recherches Dermatologiques Galderma, priority 1994, dated 2000)
